Assay results reported in patent publication US20100152100A1, “ACCELERATED THERAPY” (Gloucester Pharmaceuticals, Inc., priority 2008, published 2010).

What was measured:
[1] = human, in vivo
[2] = Accelerated romidepsin dosing, clinical trial experience (unit doses given intravenously over about one hour or less)
[3] = Earlier clinical investigations of romidepsin: observed toxicities and deaths; conditions: early development; out of more than 450 patients
[4] = patient five, (Breast Cancer), 8 mg/m^2
[5] = patient four, (Breast Cancer), 8 mg/m^2
[6] = patient two, (Multiple Myeloma), 10 mg/m^2
[7] = patient, (Multiple Myeloma), 8 mg/m^2

## C/C=C1\NC(=O)[C@H]2CSSCC/C=C/[C@H](CC(=O)N[C@H](C(C)C)C(=O)N2)OC(=O)[C@H](C(C)C)NC1=O [romidepsin, (1S,4S,10S,16E,21R)-7-[(2Z)-ethylidene]-4,21-diisopropyl-2-oxa-12,13-dithia-5,8,20,23-tetraazabicyclo[8.7.6]tricos-16-ene-3,6,9,19,22-pentanone]
[1]
  serial serum troponin levels and multiple gated acquisition (MUGA) scans: consistently normal
  severity of observed toxicities: mild to moderate
[2]; 15 patients on accelerated dosing regimens
  electrocardiogram findings, lab abnormalities, adverse events, and serious adverse events overall: consistent with the results seen in prior clinical trials utilizing romidepsin
[2]; [4]
  Clinically Significant Lab Abnormalities: None
  Related SAEs: None
[2]; patient five, (Breast Cancer), 8 mg/m^2, full wrapped cell: Nonspecific T wave changes, low QRS voltages, tachycardia, possible anterior infarction, left atrial abnormality
  ECG Findings (Machine Alerts): Nonspecific T wave
[2]; patient five, GPI-06-0005 (Breast Cancer), 8 mg/m^2 on Days 1, 8, and 15 of Cycle 2 and beyond, 6 accelerated doses, full wrapped cell: Fatigue, dysphagia, dizziness
  Related Adverse Events: Fatigue,
[2]; [5]
  Clinically Significant Lab Abnormalities: None
  Related SAEs: None
[2]; patient four, (Breast Cancer), 8 mg/m^2, full wrapped cell: Left anterior fascicular block, low QRS voltages, nonspecific T wave changes, possible left ventricular hypertrophy, possible anterior infarction, tachycardia, sinus arrhythmia
  ECG Findings (Machine Alerts): Left anterior
[2]; patient four, GPI-06-0005 (Breast Cancer), 8 mg/m^2 on Days 1, 8, and 15 of Cycle 2 and beyond, 5 accelerated doses, full wrapped cell: Fatigue, vomiting, anemia, anorexia
  Related Adverse Events: Fatigue,
[2]; patient one, (Multiple Myeloma), 10 mg/m^2
  Related SAEs: None
[2]; patient one, (Multiple Myeloma), 10 mg/m^2, full wrapped cell: Sinus tachycardia, nonspecific ST changes, low QRS voltages, junctional depression prior to baseline
  ECG Findings (Machine Alerts): Sinus tachycardia,
[2]; patient one, (Multiple Myeloma), 10 mg/m^2, full wrapped cell: Thrombocytopenia, anemia, neutropenia, increased serum creatinine, hyperpcalcemia
  Clinically Significant Lab Abnormalities: Thrombocytopenia,
[2]; patient one, GPI-08-0006 (Multiple Myeloma), 10 mg/m^2 on Days 1, 8, and 15 of Cycle 1 and beyond, 2 accelerated doses, full wrapped cell: Flushing, cold feeling, nausea, vomiting, back pain, canker sore, fatigue, UTI, hypokalemia, hypophosphatemia
  Related Adverse Events: Flushing,
[2]; patient three, (Multiple Myeloma), 10 mg/m^2
  Related SAEs: None
[2]; patient three, (Multiple Myeloma), 10 mg/m^2, full wrapped cell: Nonspecific T waves changes possibly due to myocardial ischemia, results consistent with baseline ECGs
  ECG Findings (Machine Alerts): Nonspecific T waves
[2]; patient three, (Multiple Myeloma), 10 mg/m^2, full wrapped cell: Thrombocytopenia, anemia, neutropenia
  Clinically Significant Lab Abnormalities: Thrombocytopenia,
[2]; patient three, GPI-08-0006 (Multiple Myeloma), 10 mg/m^2 on Days 1, 8, and 15 of Cycle 1 and beyond, 13 accelerated doses, full wrapped cell: Nausea, vomiting, flushing, constipation, headache, body aches, abdominal pain, diarrhea, bloating, vein erythema
  Related Adverse Events: Nausea,
[2]; [6]
  QTC (ECG machine alert): close to 450
  Related SAEs: None
[2]; patient two, (Multiple Myeloma), 10 mg/m^2, full wrapped cell: T wave changes, conduction defect of right bundle branch block, low QRS spatial velocity, QTC close to 450
  ECG Findings (Machine Alerts): T wave changes,
[2]; patient two, (Multiple Myeloma), 10 mg/m^2, full wrapped cell: Thrombocytopenia, anemia, neutropenia, increased serum creatinine
  Clinically Significant Lab Abnormalities: Thrombocytopenia,
[2]; patient two, GPI-08-0006 (Multiple Myeloma), 10 mg/m^2 on Days 1, 8, and 15 of Cycle 1 and beyond, 2 accelerated doses, full wrapped cell: Knee pain, headache, skin crawling, cold feet, malaise, bowel urgency, nausea, vomiting
  Related Adverse Events: Knee pain,
[2]; patient, 78 kg, 26 mg on days 1, 8, and 15 of 28 day cycle, accelerated dose Day 15 of cycle 8, full wrapped cell: Nausea, vomiting and diarrhoea, heamaturia
  Adverse Events reported directly after infusion: Nausea,
[2]; patient, 78 kg, 26 mg, accelerated dose Day 15 of cycle 8, full wrapped cell: Hypocalcaemia noted
  LAB: Hypocalcaemia
[2]; patient, 78 kg, 26 mg, accelerated dose Day 15 of cycle 8, full wrapped cell: Post infusion ECG - peaked T waves laterally and subtle ST depression laterally but otherwise normal ECG next day was normal
  ECG: Post infusion
[2]; patient, 95.8 Kg, 30.5 mg on days 1, 8, and 15 of 28 day cycle, accelerated dose Day 1 of cycle 8
  Adverse Events reported directly after infusion: None
[2]; patient, 95.8 Kg, 30.5 mg, accelerated dose Day 1 of cycle 8, asymptomatic
  lateral ST depression on post infusion ECG: of 1 mm.
[2]; patient, 95.8 Kg, 30.5 mg, accelerated dose Day 1 of cycle 8, full wrapped cell: No immediate effect but hypocalcaemia later
  LAB: No immediate
[2]; patient, 95.8 Kg, 30.5 mg, accelerated dose Day 1 of cycle 8, full wrapped cell: Post infusion ECG asymptomatic - showed some lateral ST depression of 1 mm. ECG 2 hours later showed improvement
  ECG: Post infusion
[2]; patient, 103 Kg, (Multiple Myeloma), 10 mg/m^2
  Related SAEs: None
[2]; patient, 103 Kg, (Multiple Myeloma), 10 mg/m^2, full wrapped cell: Nonspecific T wave changes, ST junctional depression
  ECG Findings (Machine Alerts): Nonspecific T wave
[2]; patient, 103 Kg, (Multiple Myeloma), 10 mg/m^2, full wrapped cell: Thrombocytopenia, anemia, neutropenia, hypoalbuminemia
  Clinically Significant Lab Abnormalities: Thrombocytopenia,
[2]; patient, 103 Kg, GPI-08-0006 (Multiple Myeloma), 10 mg/m^2 on Days 1, 8, and 15 of Cycle 1 and beyond, 4 accelerated doses, full wrapped cell: Nausea, thrombocytopenia, fatigue, vein erythema, vomiting
  Related Adverse Events: Nausea,
[2]; patient, 13 mg on days 1, 8, and 15 of 28 day cycle, accelerated dose Day 15 of cycle 2
  Adverse Events reported directly after infusion: None
[2]; patient, 13 mg, accelerated dose Day 15 of cycle 2, full wrapped cell: No abnormalities
  LAB: No
[2]; patient, 13 mg, accelerated dose Day 15 of cycle 2, full wrapped cell: Post dose ECGs taken on same day and next day, no abnormalities notes
  ECG: Post dose
[2]; patient, (Giant Cell), 12 mg/m^2
  Related SAEs: None
[2]; patient, (Melanoma), 8 mg/m^2
  Clinically Significant Lab Abnormalities: None
  Related SAEs: None
[2]; patient, (Melanoma), 8 mg/m^2, full wrapped cell: Nonspecific T wave changes possibly due to myocardial ischemia, low QRS voltages, sinus tachycardia, possible inferior infarction
  ECG Findings (Machine Alerts): Nonspecific T wave
[2]; [7]
  Clinically Significant Lab Abnormalities: None
  Related SAEs: None
[2]; patient, (Multiple Myeloma), 10 mg/m^2, full wrapped cell: T wave inversion, low QRS voltages, reversed R wave progression
  ECG Findings (Machine Alerts): T wave inversion,
[2]; patient, (Multiple Myeloma), 10 mg/m^2, full wrapped cell: Thrombocytopenia, anemia, neutropenia, hypoalbuminemia, hypokalemia
  Clinically Significant Lab Abnormalities: Thrombocytopenia,
[2]; patient, (Multiple Myeloma), 10 mg/m^2, full wrapped cell: Vomiting, headache, dehydration
  Related SAEs: Vomiting,
[2]; patient, (NHL), 8 mg/m^2
  Clinically Significant Lab Abnormalities: None
  Related SAEs: None
[2]; patient, (NHL), 8 mg/m^2, full wrapped cell: Probable normal variant, borderline lateral T wave changes, low QRS voltages
  ECG Findings (Machine Alerts): Probable normal
[2]; patient, (Ovarian Cancer), 12 mg/m^2, full wrapped cell: Atrial fibrillation
  Related SAEs: Atrial
[2]; patient, GPI-06-0005 (Melanoma), 8 mg/m^2 on Days 1, 8, and 15 of Cycle 2 and beyond, 3 accelerated doses, full wrapped cell: Fatigue, vomiting
  Related Adverse Events: Fatigue,
[2]; patient, GPI-06-0005 (NHL), 8 mg/m^2 on Days 1, 8, and 15 of Cycle 2 and beyond, 3 accelerated doses
  Related Adverse Events: Fatigue
[2]; patient, GPI-08-0006 (Multiple Myeloma), 8 mg/m^2 on Days 1, 8, and 15 of Cycle 1 and beyond, 4 accelerated doses
  ECG Findings (Machine Alerts): None
[2]; patient, GPI-08-0006 (Multiple Myeloma), 10 mg/m^2 on Days 1, 8, and 15 of Cycle 1 and beyond, 1 accelerated dose, full wrapped cell: Nausea, vomiting, headache, dehydration
  Related Adverse Events: Nausea,
[2]; unit doses over less than about one hour
  rate of serious adverse events vs unit doses administered over about 4 hours: without increasing the rate of serious adverse events
[3]
  deaths during clinical investigations: 6
